Experimental data: ChEMBL document CHEMBL3885881, “DrugMatrix”

Species on record: Rattus norvegicus
Test: DrugMatrix - Regimen: Daily Repeat
Assay type: toxicity, organism-based, Sprague-Dawley
Set-up: regimen Daily Repeat, gender Male, age 6-8 weeks
Settings: in vivo, po, route oral GAVAGE, vehicle .5 % CMC; for BASOPHIL / EOSINOPHIL / ERYTHROCYTE COUNT / HEMATOCRIT / LEUKOCYTE COUNT / LYMPHOCYTE / MEAN CORPUSCULAR HEMOGLOBIN / MEAN CORPUSCULAR HEMOGLOBIN CONCENTRATION / MONOCYTE / NEUTROPHIL / PLATELET COUNT / HEMOGLOBIN / MEAN CORPUSCULAR VOLUME: tissue Blood; for ALANINE AMINOTRANSFERASE / ALBUMIN / ASPARTATE AMINOTRANSFERASE / BLOOD UREA NITROGEN / CHOLESTEROL / CREATINE PHOSPHOKINASE / CREATININE / GLUCOSE / PHOSPHORUS / POTASSIUM / SODIUM / TOTAL PROTEIN / ALKALINE PHOSPHATASE: tissue Plasma
[1] = 0 mg/kg, 72 h, dose level Control, time 3 day
[2] = 0 mg/kg, 120 h, dose level Control, time 5 day
[3] = […], 72 h, dose 0.77 mg/Kg, dose level Low, time 3 day
[4] = […], 72 h, dose 7.5 mg/Kg, dose level High, time 3 day
[5] = […], 120 h, dose 0.77 mg/Kg, dose level Low, time 5 day
[6] = […], 120 h, dose 7.5 mg/Kg, dose level High, time 5 day

Sequence: IVERMECTIN
- BASOPHIL [1]: 0%
- EOSINOPHIL [1]: 0.33%
- ERYTHROCYTE COUNT [1]: 6.03 x10E6/uL
- HEMATOCRIT [1]: 38.8%
- LEUKOCYTE COUNT [1]: 10.64 x10E3/uL
- LYMPHOCYTE [1]: 83.33%
- MEAN CORPUSCULAR HEMOGLOBIN [1]: 23.64 pg
- MEAN CORPUSCULAR HEMOGLOBIN CONCENTRATION [1]: 36.74 G/DL
- MONOCYTE [1]: 3.33%
- NEUTROPHIL [1]: 13%
- PLATELET COUNT [1]: 1264.4 x10E3/uL
- ALANINE AMINOTRANSFERASE [1]: 38.83 u/L
- ALBUMIN [1]: 3.55 G/DL
- ASPARTATE AMINOTRANSFERASE [1]: 66.17 u/L
- BLOOD UREA NITROGEN [1]: 15.67 mg/dL
- CHOLESTEROL [1]: 76.5 mg/dL
- CREATINE PHOSPHOKINASE [1]: 166.83 u/L
- CREATININE [1]: 0.52 mg/dL
- GLUCOSE [1]: 173.17 mg/dL
- PHOSPHORUS [1]: 11.68 mg/dL
- POTASSIUM [1]: 6.43 MEQ/L
- SODIUM [1]: 149.5 MEQ/L
- TOTAL PROTEIN [1]: 5.93 G/DL
- BASOPHIL [2]: 0%
- EOSINOPHIL [2]: 0%
- ERYTHROCYTE COUNT [2]: 5.88 x10E6/uL
- HEMATOCRIT [2]: 37.87%
- HEMOGLOBIN [2]: 14.48 G/DL
- LEUKOCYTE COUNT [2]: 12.43 x10E3/uL
- LYMPHOCYTE [2]: 84.17%
- MEAN CORPUSCULAR HEMOGLOBIN [2]: 24.65 pg
- MEAN CORPUSCULAR HEMOGLOBIN CONCENTRATION [2]: 38.25 G/DL
- MEAN CORPUSCULAR VOLUME [2]: 64.47 fL
- MONOCYTE [2]: 4.33%
- NEUTROPHIL [2]: 11.5%
- PLATELET COUNT [2]: 1182.33 x10E3/uL
- ALANINE AMINOTRANSFERASE [2]: 38.67 u/L
- ALBUMIN [2]: 3.55 G/DL
- ALKALINE PHOSPHATASE [2]: 342.5 u/L
- ASPARTATE AMINOTRANSFERASE [2]: 63.33 u/L
- BLOOD UREA NITROGEN [2]: 15.5 mg/dL
- CHOLESTEROL [2]: 75.5 mg/dL
- CREATINE PHOSPHOKINASE [2]: 142.5 u/L
- CREATININE [2]: 0.62 mg/dL
- GLUCOSE [2]: 165.17 mg/dL
- PHOSPHORUS [2]: 10.87 mg/dL
- POTASSIUM [2]: 6.85 MEQ/L
- SODIUM [2]: 150.17 MEQ/L
- TOTAL PROTEIN [2]: 5.93 G/DL
- BASOPHIL [3]: 0%
- EOSINOPHIL [3]: 0%
- ERYTHROCYTE COUNT [3]: 5.86 x10E6/uL
- HEMATOCRIT [3]: 37.37%
- HEMOGLOBIN [3]: 14 G/DL
- LEUKOCYTE COUNT [3]: 13.5 x10E3/uL
- LYMPHOCYTE [3]: 81.33%
- MEAN CORPUSCULAR HEMOGLOBIN [3]: 23.97 pg
- MEAN CORPUSCULAR HEMOGLOBIN CONCENTRATION [3]: 37.5 G/DL
- MONOCYTE [3]: 4%
- NEUTROPHIL [3]: 14.67%
- PLATELET COUNT [3]: 1163.33 x10E3/uL
- BASOPHIL [4]: 0%
- EOSINOPHIL [4]: 0%
- ERYTHROCYTE COUNT [4]: 6.06 x10E6/uL
- HEMATOCRIT [4]: 37.9%
- HEMOGLOBIN [4]: 13.7 G/DL
- LEUKOCYTE COUNT [4]: 13 x10E3/uL
- LYMPHOCYTE [4]: 92%
- MEAN CORPUSCULAR HEMOGLOBIN [4]: 22.6 pg
- MEAN CORPUSCULAR HEMOGLOBIN CONCENTRATION [4]: 36.1 G/DL
- MONOCYTE [4]: 4%
- NEUTROPHIL [4]: 4%
- PLATELET COUNT [4]: 1400 x10E3/uL
- ALANINE AMINOTRANSFERASE [3]: 35 u/L
- ALKALINE PHOSPHATASE [3]: 418 u/L
- ASPARTATE AMINOTRANSFERASE [3]: 56 u/L
- BLOOD UREA NITROGEN [3]: 12.67 mg/dL
- CHOLESTEROL [3]: 77.33 mg/dL
- CREATINE PHOSPHOKINASE [3]: 149.33 u/L
- CREATININE [3]: 0.5 mg/dL
- PHOSPHORUS [3]: 13.27 mg/dL
- POTASSIUM [3]: 6.9 MEQ/L
- SODIUM [3]: 150.33 MEQ/L
- TOTAL PROTEIN [3]: 5.73 G/DL
- ALANINE AMINOTRANSFERASE [4]: 31 u/L
- ALKALINE PHOSPHATASE [4]: 420 u/L
- ASPARTATE AMINOTRANSFERASE [4]: 57 u/L
- CHOLESTEROL [4]: 70 mg/dL
- CREATINE PHOSPHOKINASE [4]: 190 u/L
- CREATININE [4]: 0.5 mg/dL
- PHOSPHORUS [4]: 13.3 mg/dL
- POTASSIUM [4]: 6.93 MEQ/L
- SODIUM [4]: 150.33 MEQ/L
- BASOPHIL [5]: 0%
- EOSINOPHIL [5]: 0%
- ERYTHROCYTE COUNT [5]: 5.85 x10E6/uL
- HEMATOCRIT [5]: 37.25%
- HEMOGLOBIN [5]: 14 G/DL
- LEUKOCYTE COUNT [5]: 11.3 x10E3/uL
- LYMPHOCYTE [5]: 94%
- MEAN CORPUSCULAR HEMOGLOBIN [5]: 23.95 pg
- MEAN CORPUSCULAR HEMOGLOBIN CONCENTRATION [5]: 37.6 G/DL
- MONOCYTE [5]: 0%
- NEUTROPHIL [5]: 6%
- PLATELET COUNT [5]: 1300.5 x10E3/uL
- BASOPHIL [6]: 0%
- EOSINOPHIL [6]: 0.33%
- ERYTHROCYTE COUNT [6]: 6.11 x10E6/uL
- HEMATOCRIT [6]: 40.07%
- HEMOGLOBIN [6]: 15 G/DL
- LEUKOCYTE COUNT [6]: 16.37 x10E3/uL
- LYMPHOCYTE [6]: 90%
- MEAN CORPUSCULAR HEMOGLOBIN CONCENTRATION [6]: 37.43 G/DL
- MEAN CORPUSCULAR VOLUME [6]: 65.57 fL
- MONOCYTE [6]: 1%
- PLATELET COUNT [6]: 1335.33 x10E3/uL
- ALANINE AMINOTRANSFERASE [5]: 36.33 u/L
- ALKALINE PHOSPHATASE [5]: 489 u/L
- ASPARTATE AMINOTRANSFERASE [5]: 59.67 u/L
- BLOOD UREA NITROGEN [5]: 15.67 mg/dL
- CHOLESTEROL [5]: 69.67 mg/dL
- CREATINE PHOSPHOKINASE [5]: 135.67 u/L
- CREATININE [5]: 0.53 mg/dL
- GLUCOSE [5]: 195.33 mg/dL
- PHOSPHORUS [5]: 13.07 mg/dL
- POTASSIUM [5]: 6.87 MEQ/L
- TOTAL PROTEIN [5]: 5.7 G/DL
- ALANINE AMINOTRANSFERASE [6]: 29.33 u/L
- ALKALINE PHOSPHATASE [6]: 361 u/L
- ASPARTATE AMINOTRANSFERASE [6]: 51.67 u/L
- BLOOD UREA NITROGEN [6]: 15.67 mg/dL
- CHOLESTEROL [6]: 64.67 mg/dL
- CREATINE PHOSPHOKINASE [6]: 155.67 u/L
- CREATININE [6]: 0.53 mg/dL
- GLUCOSE [6]: 166.33 mg/dL
- PHOSPHORUS [6]: 13.37 mg/dL
- POTASSIUM [6]: 7.1 MEQ/L
- SODIUM [6]: 147 MEQ/L
- TOTAL PROTEIN [6]: 5.7 G/DL
